{
  "source": "patent US20200289552A1",
  "about": "“SOLID COMPOSITION COMPRISING IODINE AGENT AND SODIUM CHLORIDE HAVING IMPROVED WATER SOLUBILITY, AND ANTIVIRAL AND ANTIMICROBIAL COMPOSITION FOR EYE, ORAL CAVITY, NASAL CAVITY OR INHALATION CONTAINING AQUEOUS SOLUTION THEREOF” (FLUCHEM LTD, priority 2017, published 2020)",
  "origin": "cited, not measured here",
  "key": {"[1]": {"test_system": "highly pathogenic H5N1 and low pathogenic H5N3, H7N7, and H9N7"}, "[2]": {"settings": "U.S. patent Ser. No. 04/950,653"}, "[3]": {"settings": "stored sealed, room temperature and 65° C., for 3 years"}},
  "data": [
    {"substance": "povidone iodine", "values": [
      {"measurement": "time to inactivate viruses below a detection limit", "setting": "[1]", "value": "less than 10 seconds"},
      {"measurement": "time to dissolve in water", "setting": "[2]", "value": 45, "unit": "min"},
      {"measurement": "effective iodine loss", "setting": "[3]", "value": "about 0.5%"}
    ]}
  ]
}
